Consider one substance from patent US12109253B2, “Use of IGFBP7 for treating malaria” (AGENCY FOR SCIENCE, TECHNOLOGY AND RESEARCH, priority 2019, dated 2024).

One data set relates to P. falciparum. Kind of data set: Rosetting assay (percentage of IRBC that form rosettes), P. falciparum. It is filed as cell-based, Plasmodium falciparum. As for the experimental part: Rosetting assay was conducted when 70% of the parasite population reached late stages (late trophozoites and schizonts) unless stated otherwise. The parasite culture suspension was stained subvitally with Giemsa (5% stain working concentration) for 20 minutes. Subsequently, 7.6 μl stained suspension was pipetted onto a clean glass slide, immediately covered with a 22×32 mm glass cover slip. The wet mount was examined with light microscope using 1000× magnification. Rosetting rate (percentage of rosetting IRBCs) was defined as the percentage of IRBC (over 200 recruited IRBC) that form rosettes. Experiments were conducted in blinded manner.
Following data review, coupled with critical information (i.e. the protein's subcellular location and cellular functions) from UNIPROT, candidates were shortlisted for further validation. The parasite culture suspensions were incubated with CSMT and antibodies against the shortlisted proteins (see Table 6, items 35, 37, 39-41) and tested in rosetting assay at a final concentration of 25 μg/ml.
The parasite culture suspension was divided into three groups, one served as control, the second group was added with recombinant human IGFBP7 (final concentration 100 ng/ml), and the third group was mixed with CSMT (CSMT:parasite culture=1:3). After one hour of incubation under in vitro cultivation conditions, rosetting assay was conducted. Separately, a portion of the IGFBP7 suspension was heat-denatured at 95° C. for one hour, prior to use in rosetting assay.
Parasite cultures were incubated with IGFBP7 (working concentrations 0-25,000 ng/ml) prior to rosetting assay. Time course experiments were performed with laboratory-adapted P. falciparum lines (3D7, MKK183, FVT402, FVT201, WPP3065) incubated with IGFBP7 (100 ng/ml). Rosetting assay was conducted after five minutes, using 7 μl of the suspension. The remaining suspension was kept back into the incubator. Rosetting assay was repeated at five minute-intervals until one hour-post-IGFBP7 exposure. Reversibility of IGFBP7-mediated rosette-stimulation was also tested. Parasite lines (3D7, MKK183, FVT402, FVT201, WPP3065) were incubated with IGFBP7 (100 ng/ml) and rosetting assay was conducted with 7 μl of the suspension. The remaining suspension was centrifuged at 1500 g for five minutes. Supernatant was removed, and the pellet was washed thrice with culture medium, followed by re-suspension with culture medium. Five minutes later, 7 μl of the suspension was taken for rosetting assay, subsequently repeated at five minute-intervals up to one-hour post-IGFBP7 removal.
Magnetic activated cell sorter (MACS)-sorted late stage-IRBC (purity 95%) were trypsinized at different working concentrations. The first group was mixed with enzyme trypsin (final trypsin concentration of 10 μg/ml), and the second was mixed with enzyme trypsin (final trypsin concentration of 1 mg/ml). The third served as untreated control. The cells were incubated at 37° C. for 30 minutes. After that, the cells were washed with serum-enriched medium for three times. Each group was incubated with or without IGFBP7 (100 ng/ml) prior to rosetting assay. P. falciparum line CS2 deficient of SBP1 [(SBP1-KO-CS2), which lacks P. falciparum erythrocyte membrane protein 1 (PFEMP1) on its IRBC surface] and its wild type (CS2-WT) counterpart were cultured as described. Their rosetting rates post-incubation with IGFBP7 at different concentrations were determined. P. falciparum clones NF54 VAR2CSA_WT and NF54_T934D (cannot express PfEMP1 variant VAR2CSA on IRBC surface^32) were cultivated. Experiments were conducted when parasite population reached late stages. For each parasite line, two conditions were applied; one was incubated with IGFBP7 (100 ng/ml) whereas the other one acted as IGFBP7-free control. Rosetting assay was conducted afterwards. Five replicates were conducted for each experiment setting. […]

The test system of another data set is hCMEC/D3. Kind of data set: IRBC-endothelial cytoadhesion to hCMEC/D3. It is filed as cell-based, Plasmodium falciparum. From the text: Following this we investigated the relationship between IGFBP7, rosetting and IRBC-endothelial cytoadhesion. As expected, IGFBP7 stimulated rosetting of the recruited laboratory-adapted P. falciparum. […] How about the already endothelial-cytoadhered IRBCs? […] Clearly, presence of IGFBP7 interfered with the dynamics between IRBC-endothelial cytoadhesion and IRBC-rosetting.
Is the IGFBP7-induced reversal of IRBC-endothelial cytoadhesion mediated via the IGFBP7-stimulated rosetting? Or are the two events occurring concomitantly? […] The two events are likely to happen in parallel instead of being a cause-effect relationship.

In a further data set the test system is THP-1. Kind of data set: Zymosan A phagocytosis by THP-1 (control experiment). As to conditions: IGFBP7 100 ng/ml one hour, then Zymosan A 10 μg/ml one hour. It is filed as cell-based, human. The protocol:
THP-1 is cultivated and expanded into three batches. For each batch of culture, 1×10^6 cells were incubated with IGFBP7 (working concentration 100 ng/ml) for one hour at in vitro cultivation conditions. Another set of cells acted as IGFBP7-free control. Subsequently, Zymosan A (working concentration 10 μg/ml) was added to both sets of cells and incubated for another one hour at in vitro cultivation conditions. Supravital staining with Giemsa was done for 15 minutes following this. Using wet mount technique, the percentage of THP-1 cells which has engulfed Zymosan A was determined as phagocytosis rate by recruiting 1,000 THP-1 cells. The experiment was repeated with the other two batches of THP-1 culture. And all the steps were repeated for another two times using THP-1 cultures thawed at different time points. P. falciparum lines (3D7, MKK183, FVT402, FVT201, CS2_WT) were incubated with or without IGFBP7 in serum-enriched medium prior to rosetting assay. Subsequently, THP-1 were added. Using wet mount technique, the IRBC phagocytosis rates were determined following the same formula to determine phagocytosis rate in the Zymosan A experiment. […]

Values joined by “and” are separate entries in the source; they are usually repeats but may differ in a detail not shown here. Equal entries are not always repeated. Bounds are passed on as bounds.

On to “insulin-like growth factor binding protein 7 [IGFBP7]”, for which the “effect on rosetting rates with VWF in Albumax medium” value in the data set on P. falciparum (0.25% Albumax II medium, IGFBP7 100 ng/ml, VWF 0-2.0 IU/ml, no TSP-1) is “did not significantly increase rosetting rates”. The “IGFBP7-induced rosetting in filtered serum” value in the data set with P. falciparum (20% human serum filtered with 0.45 μm filter, IGFBP7 100 ng/ml) was “abolished”. Moreover, the “rosette-stimulating capacity after heat denaturation” value in the data set on P. falciparum (95° C. for one hour, Pf n=5) is “abolished”. In addition, the “effect on rosetting rate” value with P. falciparum (CS2 wild-type parasite) was “increased”; in the data set with P. falciparum (SBP1-KO-CS2 (no PfEMP1 on IRBC surface)) it was “no effect”. In addition, in the data set on P. falciparum (IRBC treated with 10 μg/ml or 1 mg/ml trypsin, IGFBP7 100 ng/ml, Pf n=5), the “effect on rosetting of trypsin-treated IRBC” value is given as “did not significantly alter rosetting”. In addition, the rosetting rates in the data set with P. falciparum (NF54 T934D (no VAR2CSA on IRBC surface), IGFBP7 100 ng/ml, one hour, biological replicates) is 0.5% (2×) and 1.5% (2×) and 1.0%; in the data set on P. falciparum (NF54 VAR2CSA_WT, IGFBP7 100 ng/ml, one hour, biological replicates), 5.0% and 7.0% and 4.5% and 4.0% and 6.5%; in the data set with P. falciparum (Pf co-incubated with THP-1, IGFBP7 100 ng/ml, biological replicates) it was 11.0% and 13.0% and 16.0% and 9.0% and 10.0%; with P. falciparum (Pf co-incubated with monocytes, IGFBP7 100 ng/ml, biological replicates), 14.0% and 18.0% and 15.0% and 17.0% and 10.0%; in the data set on P. falciparum (late ring stages (hour 16-26) of NHP1106, IGFBP7 100 ng/ml, replicates flask/cycle), 8.5% and 7.0% (2×) and 8.0% (2×) and 6.0% (3×) and 5.0%. In addition, in the data set on P. falciparum (Pf n=7, one hour incubation, 0-25,000 ng/ml tested), the “concentration at which significant rosette-stimulation noted” value came out at 50 ng/mL. In the data set on P. falciparum (PfCS2-WT), the “concentration from which significant rosette-stimulation was noted” value worked out at 100 ng/mL. Also, the “effect on rosetting with URBC of different ABO blood groups” value in the data set on P. falciparum (URBC groups A, B, O, AB, rhIGFBP7 100 ng/ml, Pf n=7) was “significantly increase rosetting rates regardless of the blood groups”. Further, the “rosetting with heparinase-treated URBC” value in the data set on P. falciparum (URBC treated with heparinase I or III 25 μg/ml, purified Pf IRBC) is “did not induce rosetting”. In addition, in the data set with P. falciparum (after co-incubation with URBCs and IGFBP7, all parasite lines recruited), the “rosetting rates of IRBCs detached from hCMEC/D3” value was 5-25%. In the data set on P. falciparum (five different P. falciparum lines, IGFBP7-incubated), the “rosette formation prior to THP-1 exposure” value is “formed more rosettes”. The “minimum time to significantly stimulate rosetting” value in the data set with P. falciparum (lab-adapted Pf n=5, IGFBP7 100 ng/ml) was not below 15 min. For the same substance, the “time after protein removal at which rosetting rates revert to baseline” value with P. falciparum (lab-adapted Pf n=5, after IGFBP7 100 ng/ml exposure and washing) is 15 min. Besides, in the data set on P. falciparum (leukocyte-free parasite culture, P. falciparum isolates), the “concentration at which rosette stimulation reaches a plateau” value was 100 ng/mL. The “effect on rosetting rates in 2% serum” value in the data set with P. falciparum (medium with only 2% serum, IGFBP7 100 ng/ml, no VWF added) was “could not increase rosetting rates”. The “cytoadhesion of already hCMEC/D3-cytoadhering IRBCs” value with hCMEC/D3 (incubation of cytoadhering IRBCs with IGFBP7) was “reduced IRBC-endothelial cytoadhesion”. In addition, the “IRBC-endothelial cytoadhesion of IGFBP7-primed packed cells” value with hCMEC/D3 (rosette-stimulated cells then co-incubated with hCMEC/D3, vs non-IGFBP7-primed) was “lower rate of IRBC-endothelial cytoadhesion”. In the data set on THP-1, the “effect on phagocytosis ability of THP-1” value is reported as “increased”.
